Reference: patent US5762956A, “Transdermal contraceptive delivery system and process” (priority 1996, dated 1998)

What was measured:
[1] = Phase I residual drug assay of used patches (daily delivery rate); conditions: for relationship between daily delivery rate and dosage: 1, 2 or 3 × 10 cm^2 TCDS patches; for Daily Delivery Rate: ± S.D.
Source text: In this study, healthy female subjects of child-bearing age were randomly divided into 4 groups in a 4-way parallel study design (See Table 5). The study consists of three menstrual cycles which are sequentially arranged as pre-treatment, treatment and post-treatment cycles. During the pre-treatment cycle, the 48 recruited subjects were given placebo TCDS patches to study the wearability (including skin irritation and adhesion tests) while they were being screened against the inclusion/exclusion criteria specified in the clinical protocol. During the treatment cycle, each of the […] in Group A, B and C received weekly application of 1, 2 or 3 pieces of 10 cm^2 TCDS patches, respectively, while each subject in Group D received one oral contraceptive pill (each pill contains 150 μg of levonorgestrel and 35 μg of ethynyl estradiol) per day as reference.

[2] = In-vitro drug permeation study, human cadaver skin, Valia-Chien cell, HPLC; assay type: in vitro ADME; conditions: from 10 cm^2 TCDS patch of Example 1, steady state
Protocol: The samples taken from the receptor compartment of the diffusion cell were analyzed by high performance liquid chromatography.
The skin permeation flux of each drug was subsequently calculated from the steady state of the permeation profile.

Rabbit Skin = experiment: Residual drug assay of patches from dermal toxicity test (daily delivery rate into rabbit); conditions: for in vivo delivery rate compared with in vitro rate: rabbit vs in vitro; for Daily Delivery Rate: rabbit, N = 6, ± S.D.
Protocol: The test consists of an one-week primary skin irritation study on six rabbits followed by histopathological examination on each patch application. Both medicated and placebo patches of this TCDS formulation were tested on either intact or abraded skin. Based on the Draize Scale Scoring Method, the primary dermal irritation index (PDII) was given to each patch application site at 24 and 72 hours following the 7 days application period. The patches used in the primary skin irritation test were retrieved for residual drug assay to determine the amount of drugs delivered into the test animal.

[3] = Phase I serum levonorgestrel by radioimmunoassay; assay type: in vivo, human (fertile Chinese women); conditions: Groups B and C, three weeks of patch application
Protocol: Blood samples obtained from these three cycles of studies were assayed by radioimmunoassay (RIA) methods for their serum concentration of levonorgestrel, estradiol, progesterone, luteinizing hormone (LH) and follicle stimulating hormone (FSH). Ultrasonic measurement of follicle size and endometrium thickness measurement were also performed during the mid-treatment cycle. Bioavailability of levonorgestrel was assessed by the serum levonorgestrel profile of each subject group. Suppression of post-ovulatory progesterone peak and mid-cycle surges of LH and FSH provided hormonal indications of ovulation inhibition.

Structure (SMILES) | relationship between daily delivery rate and dosage [1] | Daily Delivery Rate ([1]; Group A: 1 × 10 cm^2 patch/week) [µg/day] | Daily Delivery Rate ([1]; Group B: 2 × 10 cm^2 patch/week) [µg/day] | Daily Delivery Rate ([1]; Group C: 3 × 10 cm^2 patch/week) [µg/day] | skin permeation flux / amount delivered [2] | in vivo delivery rate compared with in vitro rate (Rabbit Skin) | Daily Delivery Rate (Rabbit Skin; abraded skin) [µg/day] | Daily Delivery Rate (Rabbit Skin; intact skin) [µg/day] | serum concentration of levonorgestrel versus target concentration [3]
C[C@]12CC[C@@H]3c4ccc(O)cc4CC[C@H]3[C@@H]1CC[C@@H]2O [17-beta-estradiol] | established only for the dosages of the first and second pieces of 10 cm^2 TCDS patches | 42.1 ± 16.32 | 89.7 ± 28.4 | 110.4 ± 28.61 | ~28.8 µg/day | higher than skin permeation rate obtained in the in vitro study | 35.1 ± 26.70 | 37.0 ± 19.77 | –
C#C[C@]1(O)CC[C@H]2[C@@H]3CCC4=CC(=O)CC[C@@H]4[C@H]3CC[C@@]21CC [Levonorgestrel, levonorgestrel] | linearly proportional to the increase in dosage of TCDS patches | – | – | – | about 60.0±9.42 μg/day | seems to correlate very well with the in vitro delivery rate | – | – | above the target concentration throughout the three weeks of patch application
